This note sets out measurements from patent publication US20230073777A1, “CYCLIC-AMP RESPONSE ELEMENT BINDING PROTEIN (CBP) AND/OR ADENOVIRAL E1A BINDING PROTEIN OF 300 KDA (P300) DEGRADATION COMPOUNDS AND METHODS OF USE” (CULLGEN (SHANGHAI), INC., priority 2019, published 2023).

Like-named read-outs stand apart in the source and are kept apart here. Where only a bound is given, the exact number is not on record here.

Test [1] has as its system LNCaP cells. Kind of test: LNCaP cell viability assay (CellTiter-Glo). The format is cell-based. Conditions: Homo sapiens, 72 h, LNCaP prostate cancer cell viability inhibition, 3 days. As to the method:
LNCaP cells seeded in 96-well plates were treated with 10 μM GNE-781 or selected bivalent compounds, i.e. P-001, P-002, and P-019, following a 12-point 3-fold serial dilution. Three days after treatment, cell viability was determined using the CellTiter-Glo kit (Promega) following manufacturer's instructions. Cell viability was normalized to the mean values of 3 replicates of untreated cells. Dose-dependent response was analyzed following the least-squares non-linear regression method using the GraphPad Prism 5.0 software.
LNCaP cells were treated with GNE-781 or selected bivalent compounds for 3 days at indicated concentrations following a 3-fold serial dilution.
Cells were seeded at a density of 5000 cells per well in 96-well assay plates and treated with test compounds following a 12-point 3-fold serial dilution. Three days later, cell viability was determined using the CellTiter-Glo assay kit according to the manufacturer's instructions. The dose-response curves were determined and IC50 values were calculated using the GraphPad Prism software following a nonlinear regression (least squares fit) method.
A general note: In ATP-based viability assays light output follows the ATP content of the culture.

The target of test [2] is P300 (Homo sapiens, UniProt Q09472). Kind of test: Immunoblotting of P300 protein levels in LNCaP or 22RV1 cells. Particulars: read-out: Degradation (10 nM). On the set-up: LNCaP or 22RV1 cells that express CBP/P300 proteins were treated with GNE-781 or the bivalent compounds; endogenous in cells; host or cells: LNCaP (clone FGC) or 22RV1 cells. The format is cell-based. As to the method:
Specific exemplary bivalent compounds were characterized in LNCaP or 22RV1 cells. LNCaP or 22RV1 cells that express CBP/P300 proteins were treated with GNE-781 or the bivalent compounds disclosed herein (P-001 to P-174) for indicated hours. Cells were collected, lysed and subject to immunoblotting using an antibody specific to P300 or CBP proteins. Tubulin or vinculin was included as the loading control. DMSO was used as the negative control.
Cultured cells or tissue chunks were washed with cold PBS once and lysed in cold RIPA buffer supplemented with protease inhibitors and phosphatase inhibitors (Beyotime Biotechnology). The solutions were then incubated at 4° C. for 30 minutes with gentle agitation to fully lyse cells. Cell lysates were centrifuged at 13,000 rpm for 10 minutes at 4° C. and pellets were discarded. Total protein concentrations in the lysates were determined by BCA assays (Beyotime Biotechnology). Cell lysates were mixed with Laemmli loading buffer to 1× and heated at 99° C. for 5 min. Proteins were resolved on SDS-PAGE and visualized by chemiluminescence. Images were taken by a ChemiDoc MP Imaging system (Bio-Rad). Protein bands were quantitated using the accompanied software provided by Bio-Rad.

[3] abbreviates: percentage of inhibition of p300 at 10 nM (Table 3).
The mark [4] stands for this setting: percentage of inhibition of p300 at 10 nM (Table 2).

Chain of P300 (Q09472 whole entry): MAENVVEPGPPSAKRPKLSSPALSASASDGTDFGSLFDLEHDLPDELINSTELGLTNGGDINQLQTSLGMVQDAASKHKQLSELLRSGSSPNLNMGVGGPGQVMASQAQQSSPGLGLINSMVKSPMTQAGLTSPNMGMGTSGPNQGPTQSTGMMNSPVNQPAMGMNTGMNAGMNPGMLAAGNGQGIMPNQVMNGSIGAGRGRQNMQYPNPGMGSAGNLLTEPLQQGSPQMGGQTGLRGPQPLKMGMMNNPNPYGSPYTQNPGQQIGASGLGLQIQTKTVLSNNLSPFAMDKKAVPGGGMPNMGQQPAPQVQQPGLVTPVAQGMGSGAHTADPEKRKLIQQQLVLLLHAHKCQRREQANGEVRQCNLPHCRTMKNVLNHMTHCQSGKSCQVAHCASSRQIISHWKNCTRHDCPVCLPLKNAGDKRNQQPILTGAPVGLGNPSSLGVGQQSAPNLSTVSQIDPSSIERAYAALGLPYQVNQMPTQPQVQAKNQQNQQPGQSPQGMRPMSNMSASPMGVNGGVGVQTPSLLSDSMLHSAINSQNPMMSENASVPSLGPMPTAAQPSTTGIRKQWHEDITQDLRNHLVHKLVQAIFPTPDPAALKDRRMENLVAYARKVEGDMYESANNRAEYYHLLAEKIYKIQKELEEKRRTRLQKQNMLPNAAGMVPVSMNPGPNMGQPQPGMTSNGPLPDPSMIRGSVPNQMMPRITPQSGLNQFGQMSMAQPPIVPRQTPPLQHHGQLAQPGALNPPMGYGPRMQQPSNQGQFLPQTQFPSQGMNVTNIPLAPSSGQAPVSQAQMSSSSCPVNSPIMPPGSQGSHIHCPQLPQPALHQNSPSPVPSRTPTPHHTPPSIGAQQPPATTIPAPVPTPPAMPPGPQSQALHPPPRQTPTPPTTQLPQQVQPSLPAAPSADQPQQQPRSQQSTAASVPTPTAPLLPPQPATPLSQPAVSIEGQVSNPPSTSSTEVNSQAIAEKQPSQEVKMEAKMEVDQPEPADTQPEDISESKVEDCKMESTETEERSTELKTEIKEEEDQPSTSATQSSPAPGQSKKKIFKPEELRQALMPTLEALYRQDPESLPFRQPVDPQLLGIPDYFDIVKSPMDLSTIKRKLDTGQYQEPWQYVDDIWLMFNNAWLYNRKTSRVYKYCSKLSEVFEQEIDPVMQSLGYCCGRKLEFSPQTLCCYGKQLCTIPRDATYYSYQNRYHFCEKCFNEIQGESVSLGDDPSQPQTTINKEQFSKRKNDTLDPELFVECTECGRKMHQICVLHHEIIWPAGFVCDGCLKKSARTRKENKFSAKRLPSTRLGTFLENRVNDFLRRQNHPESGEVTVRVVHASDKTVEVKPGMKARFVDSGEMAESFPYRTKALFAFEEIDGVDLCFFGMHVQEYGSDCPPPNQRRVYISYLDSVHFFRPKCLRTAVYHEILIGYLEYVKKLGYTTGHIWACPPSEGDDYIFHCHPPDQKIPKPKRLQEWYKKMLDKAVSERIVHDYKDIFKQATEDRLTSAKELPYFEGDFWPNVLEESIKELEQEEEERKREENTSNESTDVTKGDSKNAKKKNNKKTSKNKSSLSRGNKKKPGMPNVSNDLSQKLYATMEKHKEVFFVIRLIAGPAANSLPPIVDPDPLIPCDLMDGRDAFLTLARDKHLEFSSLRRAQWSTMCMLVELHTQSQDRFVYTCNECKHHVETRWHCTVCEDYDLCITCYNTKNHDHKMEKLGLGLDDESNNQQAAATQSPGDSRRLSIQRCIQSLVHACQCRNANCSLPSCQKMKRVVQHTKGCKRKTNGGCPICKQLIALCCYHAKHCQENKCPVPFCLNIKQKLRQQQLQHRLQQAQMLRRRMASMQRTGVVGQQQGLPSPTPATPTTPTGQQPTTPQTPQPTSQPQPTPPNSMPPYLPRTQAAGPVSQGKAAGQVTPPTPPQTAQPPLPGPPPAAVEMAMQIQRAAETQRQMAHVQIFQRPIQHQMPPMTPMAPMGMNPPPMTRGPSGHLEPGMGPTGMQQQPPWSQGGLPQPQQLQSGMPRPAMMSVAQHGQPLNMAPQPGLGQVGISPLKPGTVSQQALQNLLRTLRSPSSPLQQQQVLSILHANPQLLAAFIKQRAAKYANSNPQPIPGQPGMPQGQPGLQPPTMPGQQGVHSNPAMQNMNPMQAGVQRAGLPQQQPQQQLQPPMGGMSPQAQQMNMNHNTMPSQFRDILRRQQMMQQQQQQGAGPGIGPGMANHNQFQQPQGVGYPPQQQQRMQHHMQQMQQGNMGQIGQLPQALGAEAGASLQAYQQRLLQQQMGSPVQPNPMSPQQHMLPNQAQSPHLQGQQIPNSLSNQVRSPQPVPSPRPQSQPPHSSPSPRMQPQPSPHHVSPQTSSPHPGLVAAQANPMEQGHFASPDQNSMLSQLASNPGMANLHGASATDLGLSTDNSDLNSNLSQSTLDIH

`CC(=O)N1CCc2c(c(N3CCCc4cc(-c5cnn(C)c5)c(C(F)F)cc43)nn2C2CCN(C(=O)CCCCCOc3cccc4c3C(=O)N(C3CCC(=O)NC3=O)C4=O)CC2)C1` (centres unmarked) [P-117, 4-((6-(4-(5-Acetyl-3-(7-(difluoromethyl)-6-(1-methyl-1H-pyrazol-4-yl)-3,4-dihydroquinolin-1(2H)-yl)-4,5,6,7-tetrahydro-1H-pyrazolo[4,3-c]pyridin-1-yl)piperidin-1-yl)-6-oxohexyl)oxy)-2-(2,6-dioxopiperidin-3-yl)isoindoline-1,3-dione]: in test [1] (CellTiter-Glo (Table 3)), 41.2 nM corresponded to half-maximal inhibition (IC50). The inhibition at 0.01 µM in test [2] (setting [3]) is greater than 80%.

Take `CNC(=O)N1CCc2c(c(N3CCCc4cc(-c5cnn(CC(=O)NCCCCCCCCC(=O)N[C@H](C(=O)N6C[C@H](O)C[C@H]6C(=O)NCc6ccc(-c7scnc7C)cc6)C(C)(C)C)c5)c(C(F)F)cc43)nn2C2CCOCC2)C1` [P-081, 3-(7-(Difluoromethyl)-6-(1-(2-((9-(((S)-1-((2S,4R)-4-hydroxy-2-((4-(4-methylthiazol-5-yl)benzyl)carbamoyl)pyrrolidin-1-yl)-3,3-dimethyl-1-oxobutan-2-yl)amino)-9-oxononyl)amino)-2-oxoethyl)-1H-pyrazol-4-yl)-3,4-dihydroquinolin-1(2H)-yl)-N-methyl-1-(tetrahydro-2H-pyran-4-yl)-1,4,6,7-tetrahydro-5H-pyrazolo[4,3-c]pyridine-5-carboxamide]: 469 nM corresponded to half-maximal inhibition in test [1] (CellTiter-Glo (Table 3)) (IC50). Also, in test [2] (setting [3]), the inhibition at 0.01 µM was less than 20%.

Turning to `CNC(=O)N1CCc2c(c(N3CCCc4cc(-c5cnn(CC(=O)NCCCC(=O)N[C@H](C(=O)N6C[C@H](O)C[C@H]6C(=O)NCc6ccc(-c7scnc7C)cc6)C(C)(C)C)c5)c(C(F)F)cc43)nn2C2CCOCC2)C1` [P-079, 3-(7-(Difluoromethyl)-6-(1-(2-((4-(((S)-1-((2S,4R)-4-hydroxy-2-((4-(4-methylthiazol-5-yl)benzyl)carbamoyl)pyrrolidin-1-yl)-3,3-dimethyl-1-oxobutan-2-yl)amino)-4-oxobutyl)amino)-2-oxoethyl)-1H-pyrazol-4-yl)-3,4-dihydroquinolin-1(2H)-yl)-N-methyl-1-(tetrahydro-2H-pyran-4-yl)-1,4,6,7-tetrahydro-5H-pyrazolo[4,3-c]pyridine-5-carboxamide], in test [1] (CellTiter-Glo (Table 3)), the concentration for half-maximal inhibition (IC50) – broadly, the midpoint of a concentration-inhibition curve – is greater than 10000 nM. For the same compound, in test [2] (setting [3]), the inhibition at 0.01 µM was less than 20%.

Consider `CNC(=O)N1CCc2c(c(N3CCCc4cc(-c5cnn(CC(=O)NCCCCCCCNc6cccc7c6C(=O)N(C6CCC(=O)NC6=O)C7=O)c5)c(C(F)F)cc43)nn2C2CCOCC2)C1` (centres unmarked) [P-042], for which, in test [1] (CellTiter-Glo (Table 2)), the midpoint of inhibition, the IC50, lay at 39 nM. Besides, the inhibition at 0.01 µM in test [2] (setting [4]) is less than 20%.

Compound `CNC(=O)N1CCc2c(c(N3CCCc4cc(-c5cnn(C)c5)c(C(F)F)cc43)nn2C2CCN(C(=O)CCCCNc3ccc4c(c3)C(=O)N(C3CCC(=O)NC3=O)C4=O)CC2)C1` (centres unmarked) [P-004, 3-(7-(difluoromethyl)-6-(1-methyl-1H-pyrazol-4-yl)-3,4-dihydroquinolin-1(2H)-yl)-1-(1-(5-((2-(2,6-dioxopiperidin-3-yl)-1,3-dioxoisoindolin-5-yl)amino)pentanoyl)piperidin-4-yl)-N-methyl-1,4,6,7-tetrahydro-5H-pyrazolo[4,3-c]pyridine-5-carboxamide] registered a half-maximal inhibitory concentration (IC50) in test [1] (CellTiter-Glo (Table 2)) of 7.1 nM. Moreover, in test [2] (setting [4]), the inhibition at 0.01 µM is greater than 80%.

In test [1] (CellTiter-Glo (Table 3)), `CNC(=O)N1CCc2c(c(N3CCCc4cc(-c5cnn(C)c5)c(C(F)F)cc43)nn2C2CCN(C(=O)CCOCCOCCC(=O)N[C@H](C(=O)N3C[C@H](O)C[C@H]3C(=O)NCc3ccc(-c4scnc4C)cc3)C(C)(C)C)CC2)C1` [P-067, 3-(7-(Difluoromethyl)-6-(1-methyl-1H-pyrazol-4-yl)-3,4-dihydroquinolin-1(2H)-yl)-1-(1-(3-(2-(3-(((S)-1-((2S,4R)-4-hydroxy-2-((4-(4-methylthiazol-5-yl)benzyl)carbamoyl)pyrrolidin-1-yl)-3,3-dimethyl-1-oxobutan-2-yl)amino)-3-oxopropoxy)ethoxy)propanoyl)piperidin-4-yl)-N-methyl-1,4,6,7-tetrahydro-5H-pyrazolo[4,3-c]pyridine-5-carboxamide] returned an IC50 of 32 nM. In addition, the inhibition at 0.01 µM in test [2] (setting [3]) is less than 20%.

With `CNC(=O)N1CCc2c(c(N3CCCc4cc(-c5cnn(CC(=O)NCCCNc6ccc7c(c6)C(=O)N(C6CCC(=O)NC6=O)C7=O)c5)c(C(F)F)cc43)nn2C2CCOCC2)C1` (centres unmarked) [P-017, 3-(7-(Difluoromethyl)-6-(1-(2-((3-((2-(2,6-dioxopiperidin-3-yl)-1,3-dioxoisoindolin-5-yl)amino)propyl)amino)-2-oxoethyl)-1H-pyrazol-4-yl)-3,4-dihydroquinolin-1(2H)-yl)-N-methyl-1-(tetrahydro-2H-pyran-4-yl)-1,4,6,7-tetrahydro-5H-pyrazolo[4,3-c]pyridine-5-carboxamide], the concentration for half-maximal inhibition (IC50) in test [1] (CellTiter-Glo (Table 2)) is 99.2 nM. Also, in test [2] (setting [4]), the inhibition at 0.01 µM was less than 20%.

`CC(=O)N1CCc2c(c(N3CCCc4cc(-c5cnn(C)c5)c(C(F)F)cc43)nn2C2CCN(C(=O)CC#CCCNc3cccc4c3C(=O)N(C3CCC(=O)NC3=O)C4=O)CC2)C1` (centres unmarked) [P-171, 4-((6-(4-(5-Acetyl-3-(7-(difluoromethyl)-6-(1-methyl-1H-pyrazol-4-yl)-3,4-dihydroquinolin-1(2H)-yl)-4,5,6,7-tetrahydro-1H-pyrazolo[4,3-c]pyridin-1-yl)piperidin-1-yl)-6-oxohex-3-yn-1-yl)amino)-2-(2,6-dioxopiperidin-3-yl)isoindoline-1,3-dione] had an IC50 in test [1] (CellTiter-Glo (Table 3)) of 253 nM. Also, in test [2] (setting [3]), the inhibition at 0.01 µM lay in the range of 20 to 50%.

On to `CNC(=O)N1CCc2c(c(N3CCCc4cc(-c5cnn(CC(=O)NCCOCCC(=O)N[C@H](C(=O)N6C[C@H](O)CC6C(=O)NCc6ccc(-c7scnc7C)cc6)C(C)(C)C)c5)c(C(F)F)cc43)nn2C2CCOCC2)C1` (stereo in doubt) [P-074, 3-(7-(Difluoromethyl)-6-(1-(2-((2-(3-(((S)-1-((2S,4R)-4-hydroxy-2-((4-(4-methylthiazol-5-yl)benzyl)carbamoyl)pyrrolidin-1-yl)-3,3-dimethyl-1-oxobutan-2-yl)amino)-3-oxopropoxy)ethyl)amino)-2-oxoethyl)-1H-pyrazol-4-yl)-3,4-dihydroquinolin-1(2H)-yl)-N-methyl-1-(tetrahydro-2H-pyran-4-yl)-1,4,6,7-tetrahydro-5H-pyrazolo[4,3-c]pyridine-5-carboxamide], for which, in test [1] (CellTiter-Glo (Table 3)), the 50% inhibitory concentration (IC50) was greater than 10000 nM.

Compound `CNC(=O)N1CCc2c(c(N3CCCc4cc(-c5cnn(C)c5)c(C(F)F)cc43)nn2C2CCN(CCCCCC#Cc3cccc4c3C(=O)N(C3CCC(=O)NC3=O)C4=O)CC2)C1` (centres unmarked) [P-098, 3-(7-(Difluoromethyl)-6-(1-methyl-1H-pyrazol-4-yl)-3,4-dihydroquinolin-1(2H)-yl)-1-(1-(7-(2-(2,6-dioxopiperidin-3-yl)-1,3-dioxoisoindolin-4-yl)hept-6-yn-1-yl)piperidin-4-yl)-N-methyl-1,4,6,7-tetrahydro-5H-pyrazolo[4,3-c]pyridine-5-carboxamide] came in with a concentration for half-maximal inhibition (IC50) in test [1] (CellTiter-Glo (Table 3)) of 1070 nM.

In test [1] (CellTiter-Glo (Table 3)), `CC(=O)N1CCc2c(c(N3CCCc4cc(-c5cnn(C)c5)c(C(F)F)cc43)nn2C2CCN(C3CCN(CCCOc4cccc5c4C(=O)N(C4CCC(=O)NC4=O)C5=O)CC3)CC2)C1` (centres unmarked) [P-139, 4-(3-(4-(5-Acetyl-3-(7-(difluoromethyl)-6-(1-methyl-1H-pyrazol-4-yl)-3,4-dihydroquinolin-1(2H)-yl)-4,5,6,7-tetrahydro-1H-pyrazolo[4,3-c]pyridin-1-yl)-[1,4′-bipiperidin]-1′-yl)propoxy)-2-(2,6-dioxopiperidin-3-yl)isoindoline-1,3-dione] yielded a 50% inhibitory concentration (IC50) greater than 500 nM.

`CNC(=O)N1CCc2c(c(N3CCCc4cc(-c5cnn(C)c5)c(C(F)F)cc43)nn2C2CCN(CCN3CCN(Cc4cccc5c4C(=O)N(C4CCC(=O)NC4=O)C5=O)CC3)CC2)C1` (centres unmarked) [P-144, 3-(7-(Difluoromethyl)-6-(1-methyl-1H-pyrazol-4-yl)-3,4-dihydroquinolin-1(2H)-yl)-1-(1-(2-(4-((2-(2,6-dioxopiperidin-3-yl)-1,3-dioxoisoindolin-4-yl)methyl)piperazin-1-yl)ethyl)piperidin-4-yl)-N-methyl-1,4,6,7-tetrahydro-5H-pyrazolo[4,3-c]pyridine-5-carboxamide]: the IC50 in test [1] (CellTiter-Glo (Table 3)) is greater than 1000 nM.
